According to patent US8026218B2, “Bifunctional analgesic compounds for opioid receptor agonists and neurokinin-1 receptor antagonists” (The University of Arizona, priority 2006, dated 2011):
Where two headings read alike, the source gives them in different places. Bridge positions count the residues as written; N and C are the ends. Square brackets hold non-standard residues; d marks the D form. Peptide text beside a SMILES is read from it. * marks the point of attachment. NH(3,5-(CF3)2-benzyl) = FC(F)(F)c1cc(CN*)cc(C(F)(F)F)c1; X1 = OC[C@H]1OC(*)[C@H](O)[C@@H](O)[C@@H]1O; Dmt = Cc1cc(O)cc(C)c1C[C@H](N)C(=O)O; dPen = CC(C)(S)[C@@H](N)C(=O)O; Nle = CCCC[C@H](N)C(=O)O

What was measured:
rat NK1 (rNK1) receptor = target: T1, rat NK1 (rNK1) receptor (Rattus norvegicus, UniProt P14600); assay: Radioligand competition binding, [3H]substance P, rNK1/CHO membranes
T1 construct: expressed in transfected cells; host or cells: CHO (rNK-1/CHO cell line from Dr. James Krause)

[1] = target: T2, human δ opioid receptors (hDOR) (Homo sapiens, UniProt P41143); assay: [35S]GTP-γ-S binding assay, hDOR; format: biochemical; conditions: Table 39; read-out: GTP binding hDOR Emax
T2 construct: expressed in transfected cells; host or cells: HN9.10 neuroblastoma cell line, pCDNA3, neomycin-selected clones

[2] = target: T3, human NK1 receptor (hNK1) (Homo sapiens, UniProt P25103); assay: Radioligand competition binding, [3H]-Substance P, hNK1
T3 construct: expressed in transfected cells

δ opioid receptors (MVD) = target: T4, δ opioid receptors (MVD) (Mus musculus, UniProt P32300); assay: Mouse isolated vas deferens (MVD) assay, opioid agonist
T4 construct: from tissue; host or cells: mouse (ICR) isolated vas deferens

[3] = target: T5, rat μ opioid receptors (rMOR) (Rattus norvegicus, UniProt P33535); assay: Radioligand competition binding, [3H]DAMGO, rMOR membranes
T5 construct: expressed in transfected cells; host or cells: HN9.10 neuroblastoma cell line, pCDNA3, neomycin-selected clones

[4] = target: T2, human δ opioid receptors (hDOR); assay: Radioligand competition binding, [3H]DPDPE, hDOR membranes
[5] = target: T5, rat μ opioid receptors (rMOR); assay: biochemical; format: biochemical; conditions: for EC50: read-out: GTP binding rMOR EC50
[6] = target: T6, Substance P receptors (guinea pig NK1) (Cavia porcellus, UniProt P30547); assay: Guinea pig isolated ileum (GPI) assay with substance P stimulation in presence of 1 μM naloxone; conditions: for GPI/LMMP SP Agonist (IC50; nM): Table 39, at 30 nM
T6 construct: from tissue; host or cells: guinea pig (Hartley) ileum LMMP, 1 μM naloxone present

μ opioid receptors (GPI) = assay: Guinea pig isolated ileum (GPI) assay, opioid agonist;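 note: inhibition of electrically evoked contractions (0.1 Hz, 0.4 msec, supramaximal voltage) in organ baths at 37 °C, contraction height 3 min after each cumulative dose versus the 1 min before dosing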
[7] = In vitro stability in rat plasma at 37° C.; format: in vitro ADME; conditions: for half-life at 50 μg/mL: rat, rat plasma, FIG. 47, read-out: T1/2 in rat plasma; for stability in the rat plasma: words
Method: The derivative compounds were tested for their metabolite stability. The compounds were incubated in rat plasma at 37° C., and aliquots were withdrawn at various time points and analyzed by HPLC to determine the concentration of remaining compound derivatives (FIGS. 15-16, 36, and 47-48).
In Vitro Stability of compound derivatives in Rat Plasm (Yamamoto, 2007, J. Am. Chem. Soc. submitted). Stock solution of compounds (50 mg/mL in DMSO) were diluted 1000-fold into rat plasma (Lot 24927, Pel-Freez Biologicals, Rogers, Ak.) to result in an incubation concentration of 50 μg/mL. All samples were incubated at 37° C. for 6 h, and 200 μL of aliquots were withdrawn at 1 h, 2 h, 4 h and 6 h. […] The samples were run in triplicate. Discussion.

[8] = Table 39, read-out: GTP binding rMOR Emax
[9] = Affinity rNK1 (Ki; nM), Table 23

T1 sequence (P14600 whole entry): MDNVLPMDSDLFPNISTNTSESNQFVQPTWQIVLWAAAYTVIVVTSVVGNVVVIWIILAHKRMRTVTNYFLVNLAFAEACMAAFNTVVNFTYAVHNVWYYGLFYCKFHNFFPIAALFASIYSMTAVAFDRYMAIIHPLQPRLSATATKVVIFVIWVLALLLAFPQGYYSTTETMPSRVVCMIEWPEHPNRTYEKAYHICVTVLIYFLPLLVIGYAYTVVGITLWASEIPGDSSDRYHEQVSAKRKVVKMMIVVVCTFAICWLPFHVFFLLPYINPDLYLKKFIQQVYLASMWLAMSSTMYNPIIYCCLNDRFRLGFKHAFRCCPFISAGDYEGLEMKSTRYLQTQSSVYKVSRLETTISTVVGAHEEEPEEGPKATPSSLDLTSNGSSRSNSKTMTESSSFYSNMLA
T4 sequence (P32300 whole entry): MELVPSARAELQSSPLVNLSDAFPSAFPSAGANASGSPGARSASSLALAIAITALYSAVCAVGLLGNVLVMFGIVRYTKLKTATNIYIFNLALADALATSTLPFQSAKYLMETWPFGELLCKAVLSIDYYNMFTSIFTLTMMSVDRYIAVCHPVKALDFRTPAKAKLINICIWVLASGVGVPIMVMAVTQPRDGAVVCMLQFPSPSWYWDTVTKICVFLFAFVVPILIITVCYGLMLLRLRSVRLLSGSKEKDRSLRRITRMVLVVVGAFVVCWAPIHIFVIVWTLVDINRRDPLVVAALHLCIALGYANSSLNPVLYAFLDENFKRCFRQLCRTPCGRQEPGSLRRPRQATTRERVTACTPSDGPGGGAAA
T6 sequence (P30547 whole entry): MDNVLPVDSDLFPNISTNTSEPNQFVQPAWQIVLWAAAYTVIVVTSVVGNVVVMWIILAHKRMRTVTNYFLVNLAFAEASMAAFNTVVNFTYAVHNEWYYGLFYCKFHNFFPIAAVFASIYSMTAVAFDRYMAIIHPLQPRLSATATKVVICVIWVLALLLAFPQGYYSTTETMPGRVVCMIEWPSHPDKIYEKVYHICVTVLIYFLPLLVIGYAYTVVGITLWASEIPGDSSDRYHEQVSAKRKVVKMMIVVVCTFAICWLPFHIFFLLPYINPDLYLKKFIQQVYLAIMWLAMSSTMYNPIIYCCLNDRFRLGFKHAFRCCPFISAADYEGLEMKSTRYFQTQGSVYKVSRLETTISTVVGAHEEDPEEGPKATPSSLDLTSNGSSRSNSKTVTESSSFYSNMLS
T3 sequence (P25103 whole entry): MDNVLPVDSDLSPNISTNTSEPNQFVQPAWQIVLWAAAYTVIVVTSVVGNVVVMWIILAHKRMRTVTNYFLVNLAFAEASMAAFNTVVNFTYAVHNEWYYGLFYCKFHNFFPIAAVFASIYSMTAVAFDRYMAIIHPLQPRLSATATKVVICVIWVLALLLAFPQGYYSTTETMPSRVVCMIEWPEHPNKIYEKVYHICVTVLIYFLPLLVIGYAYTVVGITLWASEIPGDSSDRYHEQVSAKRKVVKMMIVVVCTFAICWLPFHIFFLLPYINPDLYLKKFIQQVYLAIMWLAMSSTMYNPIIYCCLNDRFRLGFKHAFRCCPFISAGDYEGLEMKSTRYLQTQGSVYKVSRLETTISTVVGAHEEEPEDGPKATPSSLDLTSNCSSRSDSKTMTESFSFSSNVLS
T2 sequence (P41143 whole entry): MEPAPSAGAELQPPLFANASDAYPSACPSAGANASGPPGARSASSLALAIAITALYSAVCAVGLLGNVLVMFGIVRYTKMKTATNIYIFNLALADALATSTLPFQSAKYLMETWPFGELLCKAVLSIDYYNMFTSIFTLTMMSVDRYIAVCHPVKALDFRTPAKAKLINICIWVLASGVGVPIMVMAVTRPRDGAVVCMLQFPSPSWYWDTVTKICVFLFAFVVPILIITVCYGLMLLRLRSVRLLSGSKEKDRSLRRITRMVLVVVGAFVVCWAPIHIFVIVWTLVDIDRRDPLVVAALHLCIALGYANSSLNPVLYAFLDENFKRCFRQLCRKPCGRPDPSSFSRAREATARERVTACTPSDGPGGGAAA
T5 sequence (P33535 whole entry): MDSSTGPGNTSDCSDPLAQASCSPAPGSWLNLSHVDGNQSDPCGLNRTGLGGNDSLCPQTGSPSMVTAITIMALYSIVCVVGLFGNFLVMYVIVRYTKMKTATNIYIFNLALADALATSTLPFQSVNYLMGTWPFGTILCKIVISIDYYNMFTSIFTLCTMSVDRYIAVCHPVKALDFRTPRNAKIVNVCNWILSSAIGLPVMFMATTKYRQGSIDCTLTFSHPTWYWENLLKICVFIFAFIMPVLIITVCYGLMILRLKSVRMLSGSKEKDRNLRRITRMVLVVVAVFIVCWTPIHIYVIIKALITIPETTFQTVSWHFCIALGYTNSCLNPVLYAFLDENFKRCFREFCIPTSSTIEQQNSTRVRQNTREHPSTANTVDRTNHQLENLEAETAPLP

| SMILES | Ki [2] | IC50 (δ opioid receptors (MVD)) | Ki [3] | Ki [4] | Emax [5, 8] | Ki (rat NK1 (rNK1) receptor; [9]) | half-life at 50 μg/mL [7] | stability in the rat plasma [7] | GPI/LMMP SP Agonist (IC50; nM) [6] | further results |
| --- | --- | --- | --- | --- | --- | --- | --- | --- | --- | --- |
| CSCC[C@H](NC(=O)[C@H](Cc1ccccc1)NC(=O)CNC(=O)[C@@H](C)NC(=O)[C@@H](N)Cc1c(C)cc(O)cc1C)C(=O)N1CCC[C@H]1C(=O)N[C@@H](CC(C)C)C(=O)N[C@@H](Cc1c[nH]c2ccccc12)C(=O)OCc1cc(C(F)(F)F)cc(C(F)(F)F)c1 [TY033] | 1.2 nM | 1.27 nM | 1.2 nM | 0.22 nM | 59% |  |  |  |  | Ki (rat NK1 (rNK1) receptor; Affinity rNK1 (Ki; nM), Table 29): 0.96 nM; Emax [1]: 200%; Kb ([6]; GPI/LMMP Substance P Antagonist (Ke; nM), Table 30): 24.5 nM; IC50 (μ opioid receptors (GPI); Table 30, read-out: GPI/LMMP Opioid(m) Agonist (IC50; nM)): 100 nM; IC50 (μ opioid receptors (GPI); Table 39, read-out: GPI/LMMP opioid(mu) agonist (IC50; nM)): 100 nM |
| CCCC[C@@H]1NC(=O)[C@H](Cc2ccccc2)NC(=O)CNC(=O)[C@H](NC(=O)[C@@H](N)Cc2ccc(O)cc2)C(C)(C)SSC(C)(C)[C@@H](C(=O)N[C@@H](Cc2c[nH]c3ccccc23)C(=O)NCc2cc(C(F)(F)F)cc(C(F)(F)F)c2)NC(=O)[C@@H]2CCCN2C1=O [TY047] (HELM PEPTIDE1{Y.[CC(C)(S[*:3])[C@@H](N[*:1])C(=O)[*:2]].G.F.[Nle].P.[Pen].W.[FC(F)(F)c1cc(CN[*:1])cc(C(F)(F)F)c1]}$PEPTIDE1,PEPTIDE1,2:R3-7:R3$$$V2.0; N-terminus assumed) |  |  | 1970 nM | 152 nM |  | 163 nM | > 24 h |  |  | EC50 ([5]; Table 39): 2910 nM |
| CCCC[C@@H]1NC(=O)[C@H](Cc2ccccc2)NC(=O)CNC(=O)[C@H](NC(=O)[C@@H](N)Cc2ccc(O)cc2)C(C)(C)SSC(C)(C)[C@H](C(=O)N[C@@H](Cc2c[nH]c3ccccc23)C(=O)NCc2cc(C(F)(F)F)cc(C(F)(F)F)c2)NC(=O)[C@@H]2CCCN2C1=O [TY048] (H-Y[dPen]GF[Nle]P[dPen]W-{NH(3,5-(CF3)2-benzyl)}; disulfide 2-7; N-terminus assumed) |  |  |  |  | 29% |  | > 24 h |  |  | Ki (rat NK1 (rNK1) receptor; Table 23, read-out: Affinity rNK1 (Ki; nM)): 26 nM |
| CC(C)C[C@H](NC(=O)[C@@H]1CCCN1C(=O)[C@@H]1NC(=O)[C@H](Cc2ccccc2)NC(=O)CNC(=O)[C@H](NC(=O)[C@@H](N)Cc2ccc(O)cc2)C(C)(C)SSC1(C)C)C(=O)N[C@@H](Cc1c[nH]c2ccccc12)C(=O)NCc1cc(C(F)(F)F)cc(C(F)(F)F)c1 [TY049] | 0.18 nM |  |  |  |  | 4.54 nM | > 24 h |  |  | Emax ([5]; read-out: GTP binding rMOR Emax): 25% |
| CCCC[C@H](NC(=O)[C@H](Cc1ccccc1)NC(=O)CNC(=O)[C@@H](C)NC(=O)[C@@H](N)Cc1ccc(O)cc1)C(=O)N1CCC[C@H]1C(=O)N[C@@H](CC(C)C)C(=O)N[C@@H](COC1O[C@H](CO)[C@@H](O)[C@H](O)[C@H]1O)C(=O)N[C@@H](Cc1c[nH]c2ccccc12)C(=O)NCc1cc(C(F)(F)F)cc(C(F)(F)F)c1 (stereo partly drawn) [TY055] | 0.052 nM | 17.4 nM | 30 nM |  |  |  |  | stable | none |  |
| CCCC[C@H](NC(=O)[C@H](Cc1ccccc1)NC(=O)CNC(=O)[C@@H](C)NC(=O)[C@@H](N)Cc1c(C)cc(O)cc1C)C(=O)N1CCC[C@H]1C(=O)N[C@@H](COC1O[C@H](CO)[C@@H](O)[C@H](O)[C@H]1O)C(=O)N[C@@H](Cc1c[nH]c2ccccc12)C(=O)NCc1cc(C(F)(F)F)cc(C(F)(F)F)c1 (stereo partly drawn) [TY056] (H-[Dmt][dA]GF[Nle]PS(X1)W-{NH(3,5-(CF3)2-benzyl)}; N-terminus assumed) | 0.0017 nM | 3.62 nM | 1.9 nM |  | 66% |  |  | stable | none | Ki (rat NK1 (rNK1) receptor; Affinity rNK1 (Ki; nM), Table 25): 10 nM; EC50 ([5]; Table 25): 44.9 nM; Emax ([5]; Table 25, read-out: GTP binding rMOR Emax (%)): 66% |
